These results are taken from patent publication US9428492B2, “Secondary alcohol substituted triazoles as PDE10 inhibitors” (Merck Sharp & Dohme Corp., priority 2012, dated 2016).

The test deals with human PDE10A2 (Homo sapiens (Human), UniProt Q9Y233). As to the kind of experiment: PDE10 fluorescence polarization (IMAP FP) inhibition assay. Type of test: biochemical. The note with it: read-out: PDE10a Ki. As to the method:
The activity of the compounds in accordance with the present invention as PDE10 inhibitors may be readily determined without undue experimentation using a fluorescence polarization (FP) methodology that is well known in the art (Huang, W., et al., J. Biomol Screen, 2002, 7: 215).
In a typical experiment the PDE10 inhibitory activity of the compounds of the present invention was determined in accordance with the following experimental method. PDE10A2 was amplified from human fetal brain cDNA (Clontech, Mountain View, Calif.) using a forward primer corresponding to nucleotides 56-77 of human PDE10A2 (Accession No. AF127480, Genbank Identifier 4894716), containing a Kozak consensus sequence, and a reverse primer corresponding to nucleotides 2406-2413 of human PDE10A2 (Accession No. AF127480, Genbank Identifier 4894716). Amplification with Easy-A polymerase (Stratagene, La Jolla, Calif.) was 95° C. for 2 minutes followed by thirty three cycles of 95° C. for 40 seconds, 55° C. for 30 seconds, and 72° C. for 2 minutes 48 seconds. Final extension was 72° C. for 7 minutes. The PCR product was TA cloned into pcDNA3.2-TOPO (Invitrogen, Carlsbad, Calif.) according to standard protocol. AD293 cells with 70-80% confluency were transiently transfected with human PDE10A2/pcDNA3.2-TOPO using Lipofectamine 2000 according to manufacturer specifications (Invitrogen, Carlsbad, Calif.). Cells were harvested 48 hours post-transfection and lysed by sonication (setting 3, 10×5 sec pulses) in a buffer containing 20 mM HEPES, 1 mM EDTA and protease inhibitor cocktail (Roche). Lysate was collected by centrifugation at 75,000×g for 20 minutes. Supernatant containing the cytoplasmic fraction was used for evaluation of PDE10A2 activity. The fluorescence polarization assay for cyclic nucleotide phosphodiesterases was performed using an IMAP® FP kit supplied by Molecular Devices, Sunnyvale, Calif. (product # R8139). IMAP® technology has been applied previously to phosphodiesterase assays (Huang, W., et al., J. Biomol Screen, 2002, 7: 215). Assays were performed at room temperature in 384-well microtiter plates with an incubation volume of 20.2 μL. Solutions of test compounds were prepared in DMSO and serially diluted with DMSO to yield 8 μL of each of 10 solutions differing by 3-fold in concentration, at 32 serial dilutions per plate. […] 0% of inhibition is determined by using DMSO (1% final concentrations).
A Labcyte Echo 555 (Labcyte, Sunnyvale, Calif.) is used to dispense 200 nL from each well of the titration plate to the 384 well assay plate. A solution of enzyme (1/1600 dilution from aliquots; sufficient to produce 20% substrate conversion) and a separate solution of FAM-labeled cAMP PDE from Molecular Devices (product # R7506), at a final concentration of 50 nM are made in the assay buffer (10 mM Tris HCl, pH 7.2, 10 mM MgCl2, 0.05% NaN3 0.01% Tween-20, and 1 mM DTT). The enzyme and the substrate are then added to the assay plates in two consecutive additions of 10 μL, and then shaken to mix. The reaction is allowed to proceed at room temperature for 30 minutes. […] The enzymatic reaction is stopped by addition of 60 μL of the binding solution to each well of the assay plates and the plates are sealed and shaken for 10 seconds. The plate was incubated at room temperature for at least one hour prior to determining the fluorescence polarization (FP). The parallel and perpendicular fluorescence of each well of the plate was measured using a Perkin Elmer EnVision™ plate reader (Waltham, Mass.).
Fluorescence polarization (mP) was calculated from the parallel (S) and perpendicular (P) fluorescence of each sample well and the analogous values for the median control well, containing only substrate (So and Po), using the following equation: Polarization (mP)=1000*(S/So−P/Po)/(S/So+P/Po).
Dose-inhibition profiles for each compound were characterized by fitting the mP data to a four-parameter equation given below.
For orientation: In fluorescence polarisation assays a small probe gives low polarisation when free and higher when bound to something large.

Sequence of human PDE10A2 (Q9Y233 267-1055): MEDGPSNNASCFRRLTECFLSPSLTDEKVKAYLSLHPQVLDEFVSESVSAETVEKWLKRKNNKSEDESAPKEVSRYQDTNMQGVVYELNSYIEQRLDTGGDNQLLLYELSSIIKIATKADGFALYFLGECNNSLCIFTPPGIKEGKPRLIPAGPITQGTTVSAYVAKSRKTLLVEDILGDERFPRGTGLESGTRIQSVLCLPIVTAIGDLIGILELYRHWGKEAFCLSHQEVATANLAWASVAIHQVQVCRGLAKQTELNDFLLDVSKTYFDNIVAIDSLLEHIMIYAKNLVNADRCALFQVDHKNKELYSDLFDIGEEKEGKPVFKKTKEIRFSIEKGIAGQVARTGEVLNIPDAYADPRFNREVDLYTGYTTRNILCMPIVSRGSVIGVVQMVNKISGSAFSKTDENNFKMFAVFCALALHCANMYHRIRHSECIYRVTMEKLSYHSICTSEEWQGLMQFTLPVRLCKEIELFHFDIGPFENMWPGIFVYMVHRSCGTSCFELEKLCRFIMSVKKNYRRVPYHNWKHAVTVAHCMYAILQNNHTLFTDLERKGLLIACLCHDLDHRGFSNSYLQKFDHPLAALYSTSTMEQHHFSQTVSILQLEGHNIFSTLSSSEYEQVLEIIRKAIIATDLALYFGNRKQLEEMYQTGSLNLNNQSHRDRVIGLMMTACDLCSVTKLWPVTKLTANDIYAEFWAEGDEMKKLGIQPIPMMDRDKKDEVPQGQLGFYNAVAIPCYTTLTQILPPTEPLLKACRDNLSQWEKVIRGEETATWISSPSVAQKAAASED

With `Cc1nc(N2CC(c3nc4ccccc4n3C)C2)cc(-n2nc(C)nc2C(O)C(F)(F)F)n1` (racemic) [Example 3, 2,2,2-trifluoro-1-(3-methyl-1-(2-methyl-6-(3-(1-methyl-1H-benzo[d]imidazol-2-yl)azetidin-1-yl)pyrimidin-4-yl)-1H-1,2,4-triazol-5-yl)ethanol], the inhibitory constant (Ki) came to 0.11 nM. Next, `Cc1nc(N2CC(c3nc4ccccc4n3C)C2)cc(-n2nc(C)nc2C(O)C(F)(F)F)n1` (single isomer, unassigned) [Example 3a, 2,2,2-trifluoro-1-(3-methyl-1-(2-methyl-6-(3-(1-methyl-1H-benzo[d]imidazol-2-yl)azetidin-1-yl)pyrimidin-4-yl)-1H-1,2,4-triazol-5-yl)ethanol]: 1 nM.

In the case of `CCC(O)c1nc(C)nn1-c1cc(N2CC(c3nc4ccccc4n3C)C2)nc(C)n1` (single isomer, unassigned) [Example 4a, 1-(3-methyl-1-(2-methyl-6-(3-(1-methyl-1H-benzo[d]imidazol-2-yl)azetidin-1-yl)pyrimidin-4-yl)-1H-1,2,4-triazol-5-yl)propan-1-ol], the Ki was 1.8 nM. To `Cc1nc(N2CC(c3nc4ccccc4n3C)C2)cc(-n2nc(C)nc2C(O)C(C)C)n1` (single isomer, unassigned) [Example 5a, 2-methyl-1-(3-methyl-1-(2-methyl-6-(3-(1-methyl-1H-benzo[d]imidazol-2-yl)azetidin-1-yl)pyrimidin-4-yl)-1H-1,2,4-triazol-5-yl)propan-1-ol] belongs 0.34 nM. To `Cc1nc(N2CC(c3nc4ccccc4n3C)C2)cc(-n2nc(C)nc2C(O)C(C)C)n1` (single isomer, unassigned) [Example 5b, 2-methyl-1-(3-methyl-1-(2-methyl-6-(3-(1-methyl-1H-benzo[d]imidazol-2-yl)azetidin-1-yl)pyrimidin-4-yl)-1H-1,2,4-triazol-5-yl)propan-1-ol] belongs 0.77 nM. To `Cc1nc(N2CC(c3nc4ccccc4n3C)C2)cc(-n2nc(C)nc2C(O)C2CC2)n1` (single isomer, unassigned) [Example 6b, cyclopropyl(3-methyl-1-(2-methyl-6-(3-(1-methyl-1H-benzo[d]imidazol-2-yl)azetidin-1-yl)pyrimidin-4-yl)-1H-1,2,4-triazol-5-yl)methanol] belongs 2.6 nM; to `Cc1nc(N2CC(c3nc4ccccc4n3C)C2)cc(-n2nc(C)nc2C(O)CC(F)(F)F)n1` (single isomer, unassigned) [Example 7a, 3,3,3-trifluoro-1-(3-methyl-1-(2-methyl-6-(3-(1-methyl-1H-benzo[d]imidazol-2-yl)azetidin-1-yl)pyrimidin-4-yl)-1H-1,2,4-triazol-5-yl)propan-1-ol], 4.5 nM. On to `Cc1nc(N2CC(c3nc4ccccc4n3C)C2)cc(-n2nc(C)nc2C(O)CC(F)(F)F)n1` (single isomer, unassigned) [Example 7b, 3,3,3-trifluoro-1-(3-methyl-1-(2-methyl-6-(3-(1-methyl-1H-benzo[d]imidazol-2-yl)azetidin-1-yl)pyrimidin-4-yl)-1H-1,2,4-triazol-5-yl)propan-1-ol], for which the inhibitory constant (Ki) was determined as 2.5 nM. To `Cc1nc(C(C)O)n(-c2cc(N3CC(c4nc5ccccc5n4C)C3)nc(C(F)(F)F)n2)n1` (single isomer, unassigned) [Example 8a, 1-(3-methyl-1-(6-(3-(1-methyl-1H-benzo[d]imidazol-2-yl)azetidin-1-yl)-2-(trifluoromethyl)pyrimidin-4-yl)-1H-1,2,4-triazol-5-yl)ethanol] belongs 0.53 nM; to `Cc1nc(C(C)O)n(-c2cc(N3CC(c4nc5ccccc5n4C)C3)nc(C(F)(F)F)n2)n1` (single isomer, unassigned) [Example 8b, 1-(3-methyl-1-(6-(3-(1-methyl-1H-benzo[d]imidazol-2-yl)azetidin-1-yl)-2-(trifluoromethyl)pyrimidin-4-yl)-1H-1,2,4-triazol-5-yl)ethanol], 1 nM; to `Cc1nc(C(C)O)n(-c2cc(N3CC(c4nc5ccccc5n4C)C3)nc(C3CC3)n2)n1` (single isomer, unassigned) [Example 10a, 1-(1-(2-cyclopropyl-6-(3-(1-methyl-1H-benzo[d]imidazol-2-yl)azetidin-1-yl)pyrimidin-4-yl)-3-methyl-1H-1,2,4-triazol-5-yl)ethanol], 0.13 nM. In the case of `Cc1nc(C(C)O)n(-c2cc(N3CC(c4nc5ccccc5n4C)C3)nc(C3CC3)n2)n1` (single isomer, unassigned) [Example 10b, 1-(1-(2-cyclopropyl-6-(3-(1-methyl-1H-benzo[d]imidazol-2-yl)azetidin-1-yl)pyrimidin-4-yl)-3-methyl-1H-1,2,4-triazol-5-yl)ethanol], the Ki was 0.39 nM. To `Cc1nc(N2CC(c3nc4ccccc4n3C)C2)cc(-n2nc(C)nc2C(O)C(F)F)n1` (single isomer, unassigned) [Example 11a, 2,2-difluoro-1-(3-methyl-1-(2-methyl-6-(3-(1-methyl-1H-benzo[d]imidazol-2-yl)azetidin-1-yl)pyrimidin-4-yl)-1H-1,2,4-triazol-5-yl)ethanol] belongs 0.65 nM; to `Cc1nc(N2CC(c3nc4ccccc4n3C)C2)cc(-n2nc(C)nc2C(O)C(F)F)n1` (single isomer, unassigned) [Example 11b, 2,2-difluoro-1-(3-methyl-1-(2-methyl-6-(3-(1-methyl-1H-benzo[d]imidazol-2-yl)azetidin-1-yl)pyrimidin-4-yl)-1H-1,2,4-triazol-5-yl)ethanol], 3 nM; to `Cc1nc(C2C[C@H]2c2nc3ccccc3n2C)cc(-n2nc(C)nc2C(O)C(F)(F)F)n1` (single isomer, unassigned) [Example 20a], 0.58 nM.

`Cc1nc(C2C[C@H]2c2nc3ccccc3n2C)cc(-n2nc(C)nc2C(O)C(F)(F)F)n1` (single isomer, unassigned) [Example 20b]: the Ki is 0.92 nM. To `CCC(O)c1nc(C)nn1-c1cc(N2CC(c3nc4ccccc4n3C)C2)nc(C)n1` (stereo not drawn) [Example 4, 1-(3-methyl-1-(2-methyl-6-(3-(1-methyl-1H-benzo[d]imidazol-2-yl)azetidin-1-yl)pyrimidin-4-yl)-1H-1,2,4-triazol-5-yl)propan-1-ol] belongs 0.51 nM; to `Cc1nc(N2CC(c3nc4ccccc4n3C)C2)cc(-n2nc(C)nc2C(O)C(C)C)n1` (stereo not drawn) [Example 5, 2-methyl-1-(3-methyl-1-(2-methyl-6-(3-(1-methyl-1H-benzo[d]imidazol-2-yl)azetidin-1-yl)pyrimidin-4-yl)-1H-1,2,4-triazol-5-yl)propan-1-ol], 0.41 nM; to `Cc1nc(N2CC(c3nc4ccccc4n3C)C2)cc(-n2nc(C)nc2C(O)C2CC2)n1` (stereo not drawn) [Example 6, cyclopropyl(3-methyl-1-(2-methyl-6-(3-(1-methyl-1H-benzo[d]imidazol-2-yl)azetidin-1-yl)pyrimidin-4-yl)-1H-1,2,4-triazol-5-yl)methanol], 0.36 nM.

For the molecule `Cc1nc(N2CC(c3nc4ccccc4n3C)C2)cc(-n2nc(C)nc2C(O)CC(F)(F)F)n1` (stereo not drawn) [Example 7, 3,3,3-trifluoro-1-(3-methyl-1-(2-methyl-6-(3-(1-methyl-1H-benzo[d]imidazol-2-yl)azetidin-1-yl)pyrimidin-4-yl)-1H-1,2,4-triazol-5-yl)propan-1-ol], the Ki was 3.2 nM.

With `Cc1nc(C(C)O)n(-c2cc(N3CC(c4nc5ccccc5n4C)C3)nc(C(F)(F)F)n2)n1` (stereo not drawn) [Example 8, 1-(3-methyl-1-(6-(3-(1-methyl-1H-benzo[d]imidazol-2-yl)azetidin-1-yl)-2-(trifluoromethyl)pyrimidin-4-yl)-1H-1,2,4-triazol-5-yl)ethanol], the Ki was 0.83 nM.

One may read the Ki as the equilibrium dissociation constant of an inhibitor or competing ligand from its target.
